Laboratory results from patent publication US20220064195A1, “SYNTHETIC I2 IMIDAZOLINE RECEPTOR LIGANDS FOR PREVENTION OR TREATMENT OF HUMAN BRAIN DISORDERS” (Universitat de Barcelona, priority 2018, published 2022).

What was measured:
in vitro = conditions: pig, PAMPA
Method: (§1) To evaluate the brain penetration of the different compounds, a parallel artificial membrane permeation assay for blood-brain barrier was used, following the method described by Di et al. (cf. Table 2). The in vitro permeability (Pe) of fourteen commercial drugs through lipid extract of porcine brain membrane together with the test compounds were determined. Commercial drugs and assayed compounds were tested using a mixture of PBS:EtOH (70:30).

[1] = Dissolution of test compounds noted in the PAMPA-BBB assay (PBS:EtOH 70:30); type: physicochemical; set-up: key: *= poor dissolution
Method: as §1

[2] = predictive penetration in the CNS from PAMPA-BBB Pe
Method: as §1

I2-IR = assay: Competition binding against the selective I2-IR radioligand [3H]-2-BFI in membranes from post-mortem human frontal cortex; conditions: membranes from post-mortem human frontal cortex; radioligand [3H]-2-BFI

Row | Compound | Papp (in vitro) [×10⁻⁶ cm/s] | dissolution [1] | CNS Prediction [2] | [^3H]-2-BFI I2 binding affinity (pKi) (I2-IR)
1 | O=C1[C@@H]2[C@@H](C=N[C@@]2(c2ccccc2)P(=O)(Oc2ccccc2)Oc2ccccc2)C(=O)N1c1ccccc1 (racemic) [Compound I-26, Diphenyl (1RS,3aSR,6aSR)-4,6-dioxo-1,5-diphenyl-1,3a,4,5,6,6a-hexahydropyrrolo[3,4-c]pyrrole-1-phosphonate] | 2.3 ± 0.04 | I-26* | CNS+/− (compounds of uncertain BBB permeation (CNS+/−): 5,179>Pe (10^−6 cm s^−1)>2,083) | 5.86 ± 1.22
2 | CCOP(=O)(OCC)[C@]1(c2ccccc2)N=C[C@H]2C(=O)N(c3cc([N+](=O)[O-])ccc3C)C(=O)[C@H]21 (racemic) [Compound I-50, Diethyl (1RS,3aSR,6aSR)-5-(2-methyl-5-nitrophenyl)-4,6-dioxo-1-phenyl-1,3a,4,5,6,6a-hexahydropyrrolo[3,4-c]pyrrole-1-phosphonate] | 1.4 ± 0.04 | I-50* | CNS− (compounds of low BBB permeation (CNS−): Pe (10^−6 cm s^−1)<2,083) | –
3 | CCOP(=O)(OCC)[C@]1(c2ccccc2)N=C[C@H]2C(=O)N(c3cccc(Cl)c3)C(=O)[C@H]21 (racemic) [Compound I-53, Diethyl (1RS,3aSR,6aSR)-5-(3-chlorophenyl)-4,6-dioxo-1-phenyl-1,3a,4,5,6,6a-hexahydropyrrolo[3,4-c]pyrrole-1-phosphonate] | 3.7 ± 0.1 | I-53* | CNS+/− (compounds of uncertain BBB permeation (CNS+/−): 5,179>Pe (10^−6 cm s^−1)>2,083) | –
4 | CCOP(=O)(OCC)[C@]1(c2ccccc2)N=C[C@H]2C(=O)N(Cc3ccccc3)C(=O)[C@H]21 (racemic) [Compound I-29, Diethyl (1RS,3aSR,6aSR)-5-benzyl-4,6-dioxo-1-phenyl-1,3a,4,5,6,6a-hexahydropyrrolo[3,4-c]pyrrole-1-phosphonate] | > 30 | I-29* | CNS+ (compounds of high BBB permeation (CNS+): Pe (10^−6 cm s^−1)>5,179) | 5.26 ± 0.22
5 | CCOP(=O)(OCC)[C@]1(c2ccccc2)N=C[C@H]2C(=O)N(c3ccc(Br)cc3)C(=O)[C@H]21 (racemic) [Compound I-47, Diethyl (1RS,3aSR,6aSR)-5-(4-bromophenyl)-4,6-dioxo-1-phenyl-1,3a,4,5,6,6a-hexahydropyrrolo[3,4-c]pyrrole-1-phosphonate] | 4.4 ± 0.4 | I-47* | CNS+/− (compounds of uncertain BBB permeation (CNS+/−): 5,179>Pe (10^−6 cm s^−1)>2,083) | –
6 | CCOP(=O)(OCC)[C@]1(c2ccccc2)N=C[C@H]2C(=O)N(c3cccc([N+](=O)[O-])c3)C(=O)[C@H]21 (racemic) [Compound I-28, Diethyl (1RS,3aSR,6aSR)-5-(3-nitrophenyl)-4,6-dioxo-1-phenyl-1,3a,4,5,6,6a-hexahydropyrrolo[3,4-c]pyrrole-1-phosphonate] | 4.5 ± 0.25 | I-28* | CNS+/− (compounds of uncertain BBB permeation (CNS+/−): 5,179>Pe (10^−6 cm s^−1)>2,083) | 6.81 ± 0.27
